Marks after values point to notes of the source that are not given here.
Assays:
[1] = test system: CCl4-induced liver fibrosis in rats; experiment: Histological evaluation of liver fibrosis (Masson's trichrome, 0-4 scale); type: in vivo, Sprague-Dawley (SD) rats; details: for Liver fibrosis score: 0-4 scale, CCl4-treated rats, 8 weeks; for Liver fibrosis +, counts of pathological rats: level 1, portal fibrosis without septa; for Liver fibrosis ++, counts of pathological rats: level 2, incomplete septa; for Liver fibrosis +++, counts of pathological rats: level 3, intact septal fibrosis and bridging; for Liver fibrosis ++++, counts of pathological rats: level 4, complete thick septa, definite cirrhosis
Experimental: (§1) The animal model was performed with five-week-old Sprague-Dawley (SD) rats purchased from BioLasco Taiwan Co., Ltd. Healthy rats weighing 220-270 g were chosen for experiment after observing for 2 weeks in the laboratory animal room. The rats were randomly divided into 6 groups (12 rats/group): normal (gp. A); control groups including model control (gp. B) and positive control (gp. C, animals receiving silymarin); treatment groups including animals receiving 300 mg/kg of cyclohexenone (gp. D), 1000 mg/kg of cyclohexenone (gp. E), and 3000 mg/kg of cyclohexenone (gp. F), as indicated in Table 1. Only normal group was not poisoned with CCl4. The body weights were recorded to calculate the dosage. […] It helps to remove toxins from liver cells by either neutralizing the toxicity of toxic compounds or competing with the binding sites in liver. It is a potent antioxidant, protects the liver from free radicals. It has been widely studied for treating various types of liver injury in animals and clinical trials. The beneficial effects on liver protection have made silymarin a good medicine for liver diseases and a drug in positive control group for the animal model of liver injury.
(§2) Rats in normal group (group A) were fed with corn oil (Sigma chemical co.) by means of stomach tubes. Carbon tetrachloride (Shimakyu, Osaka, Japan) was administered to groups B to F via stomach tubes twice weekly (every Tuesday and Thursday afternoon) for 8 weeks, at a dose of 2 ml/kg of body weight, diluted with corn oil. Silymarin was prepared with saline in an amount of 200 mg/kg of body weight and was fed to rats of group C via a stomach tube. Cyclohexenone prepared from example 1 was mixed with saline, and fed in the amounts of 300 mg/kg, 1000 mg/kg and 3000 mg/kg of body weight to rats of group D to F via stomach tubes. The total feeding volume was estimated in the ratio of 10 ml/kg of body weight to groups C to F five days a week (every morning) for 8 weeks. The body weights of rats and the amounts of food intake in rats for each group were shown in FIG. 1 and FIG. 2, respectively.
The pathological changes of the liver surface were examined with naked eyes when the liver was taken out from rats, and then tissue sections were made. Half of each liver lobe was stored at −80° C. for antioxidant enzyme assay to follow up. The rest of liver tissues were fixed in 10% formalin for one week, embedded in paraffin cut into 2 μm sections, and stained with Hematoxyline-eosin (H&E) to visualize the lipid deposition, inflammation, cell necrosis and fibrosis, or stained with Masson's trichromic solution to visualize extracellular matrix and collagen fibers for liver fibrosis development. The pathological changes of liver injury were evaluated under light microscope (Opticphot-2, Nikon, Tokyo, Japan) after stained with the abovementioned solution.
Liver fibrosis was evaluated semiquantitatively according to the scoring methods from Gabriele et al. (Gabriele, B. 1997. Silymarin retards collagen accumulation in early and advanced biliary fibrosis secondary to complete bile duct obliteration in rats. Hepatology 26: 643-649) and Wang et al. (Wang, G. S., Eriksson, L. C., Xia, L., Olsson, J. and Stal, P. 1999. Dietary iron overload inhibits carbon tetrachloride-induced promotion in chemical hepatocarcinogenesis: effects on cell proliferation, apoptosis, and antioxidation. J. Hepatol. 30(4):689-98.). Fibrosis was staged on a 0-4 scale: level 0, no fibrosis, normal liver tissue; level 1, proliferation of collagen, portal fibrosis without septa (proliferation of radiating fiber in central vein or periportal region); level 2, incomplete septa between central vein and periportal region (septa without bridging); level 3, intact septal fibrosis and bridging, many nodules in liver, the septa is thin; and level 4, complete thick septa, definite cirrhosis. The results are shown in FIG. 3 to FIG. 5, and Table 3.

[2] = test system: CCl4-induced liver injury in rats; experiment: Weights of liver, kidney and spleen relative to body weight after CCl4-induced liver injury; type: in vivo, Sprague-Dawley (SD) rats; details: CCl4-treated rats, 8 weeks
Experimental: as §1, §2
All rats were sacrificed at the end of the 8th week of experiment. The weights of liver, kidney and spleen were recovered and weighted and compared with the body weights to calculate the ratios and observe the effects of cyclohexenone from Antrodia camphorata to CCl4 treatment. All values are expressed as mean ±SD, which were evaluated using One-way Analysis of Variance. Those with significant differences were further tested with the Least Significant Difference Test (LSD) or Student t-test to compare cyclohexenone treatment groups and normal groups, positive control and model groups. P<0.05 was selected as criterion for statistical significance in all cases.

Compound: COC1=C(OC)C(O)C(C/C=C(\C)CC/C=C(\C)CCC=C(C)C)C(C)C1=O (centres unmarked) [Cyclohexenone from Antrodia camphorata, 4-hydroxy-2,3-dimethoxy-6-methyl-5(3,7,11-trimethyl-dodeca-2,6,10-trienyl)-cyclohex-2-enone]
- Liver fibrosis score ([1]; cyclohexenone 300 mg/kg): 1.8*^a
- Liver fibrosis score ([1]; cyclohexenone 300 mg/kg, listed as cyclohexenone from Antrodia camphorata): 1.8
- Liver fibrosis score ([1]; cyclohexenone 1000 mg/kg): 2.0*^a
- Liver fibrosis score ([1]; cyclohexenone 3000 mg/kg): 2.5*
- Liver fibrosis −, counts of pathological rats ([1]; level 0, no fibrosis, cyclohexenone 1000 mg/kg): 2
- Liver fibrosis +, counts of pathological rats ([1]; cyclohexenone 300 mg/kg): 6
- Liver fibrosis +, counts of pathological rats ([1]; cyclohexenone 1000 mg/kg): 1
- Liver fibrosis +, counts of pathological rats ([1]; cyclohexenone 3000 mg/kg): 2
- Liver fibrosis ++, counts of pathological rats ([1]; cyclohexenone 300 mg/kg): 4
- Liver fibrosis ++, counts of pathological rats ([1]; cyclohexenone 1000 mg/kg): 4
- Liver fibrosis ++, counts of pathological rats ([1]; cyclohexenone 3000 mg/kg): 4
- Liver fibrosis +++, counts of pathological rats ([1]; cyclohexenone 300 mg/kg): 1
- Liver fibrosis +++, counts of pathological rats ([1]; cyclohexenone 1000 mg/kg): 3
- Liver fibrosis +++, counts of pathological rats ([1]; cyclohexenone 3000 mg/kg): 3
- Liver fibrosis ++++, counts of pathological rats ([1]; cyclohexenone 300 mg/kg): 1
- Liver fibrosis ++++, counts of pathological rats ([1]; cyclohexenone 1000 mg/kg): 1
- Liver fibrosis ++++, counts of pathological rats ([1]; cyclohexenone 3000 mg/kg): 2
- kidney to body weight ratio ([2]; cyclohexenone 300 mg/kg): 0.68 ± 0.06 %
- liver to body weight ratio ([2]; cyclohexenone 300 mg/kg): 3.29 ± 0.35%
- spleen to body weight ratio ([2]; cyclohexenone 300 mg/kg): 0.20 ± 0.05 %
- kidney to body weight ratio ([2]; cyclohexenone 1000 mg/kg): 0.69 ± 0.13%
- liver to body weight ratio ([2]; cyclohexenone 1000 mg/kg): 3.20 ± 0.47 %
- spleen to body weight ratio ([2]; cyclohexenone 1000 mg/kg): 0.22 ± 0.06 %
- kidney to body weight ratio ([2]; cyclohexenone 3000 mg/kg): 0.73 ± 0.08 %
- liver to body weight ratio ([2]; cyclohexenone 3000 mg/kg): 3.65 ± 0.53 %
- spleen to body weight ratio ([2]; cyclohexenone 3000 mg/kg): 0.30 ± 0.10 %

— patent US7456225B1, “Liver protection compounds of the cyclohexenone type from Antrodia camphorata” (Golden Biotechnology Corporation, priority 2007, dated 2008)
